Where two headings read alike, the source gives them in different places.
How the values were obtained:
Hep G2 cells = experiment: Conjugate-mediated uptake of IgG2a into HepG2 cells; type: cell-based, human; settings: one hour incubation, FIG. 25; average loading (816), DAR4 (817), DAR4 (520)
Experimental: The uptake of antibody conjugates of exemplary M6PR or ASGPR binding compounds was assessed in Hep G2 cells, using a method similar to that described in Example 79.

[1] = molecular target: T1, recombinant human CI-M6PR protein (Homo sapiens, UniProt P11717); experiment: Human CI-M6PR binding assay (ELISA); settings: for EC50: antibody conjugate; for binding affinity for M6PR, rank among the conjugates tested: matuzumab conjugates, ELISA, FIGS. 19A-19F
T1 construct: purchased R&D 6418-GR-050
Experimental: Nunc black solid bottom MaxiSorp plates were allowed to incubate overnight at 4° C. coated with […] of recombinant human CI-M6PR protein (R&D, 6418-GR-050) in 50 μL PBS. The next day, coating was decanted and plates were washed 3× with PBS. Wells were blocked with 350 μL of 3% BSA-PBS for 1 hour at room temperature. […] 50 μL of diluted conjugates were added to the plate and allowed to incubate at room temperature for 2 hours. After incubation, solutions in plate were decanted and washed with 350 μL of 0.05% PBS-Tween20 three times, drying the plate each wash on a clean paper towel. 50 μL of peroxidase AffiniPure Mouse Anti-Human IgG (Jackson Immuno, 209-035-088) diluted in 3% BSA-PBS to […] was added to the plate and allowed to incubate for 1 hour at room temperature in the dark. After incubation, solutions in plate were decanted and washed with 350 μL of 0.05% PBS-Tween20 3 times, drying the plate each wash on a clean paper towel. […] 50 μL of QuantaBlu solution was added to wells and allowed to incubate for 5-10 minutes at room temperature. After incubation, plates were read on a Perkin Elmer EnVision using photometric 340 and Umbelliferone 460 filter sets for excitation and emission, respectively. Data analysis and non-linear curve-fitting was performed using GraphPad Prism.

Jurkat cells = experiment: Conjugate-mediated uptake of IgG2a-Alexa488 into Jurkat cells (flow cytometry); type: cell-based; settings: one hour incubation, FIG. 24
Experimental: The anti-IgG2a conjugates were bound to IgG2a-Alexa488, as follows: equal molar ratios of anti-IgG2a and IgG2a-Alexa488 were added in tissue culture media for 30 minutes at room temperature. The resulting anti-IgG2a:IgG2a antibody-Alexa488 compositions were added to Jurkat cells (100 k cells/50 ul per well, n=2), and Alexa488 fluorescence levels were measured (via Alexa488 measurement) at 1 hour and 24 hours by flow cytometry. Because Alexa488 accumulates in cells, this presents a way to measure total intracellular uptake by cells over time.

[2] = average loading DAR 9, FIG. 23, read-out: EC50 (nM) in M6PR binding assay
[3] = average loading DAR 9.5, FIG. 23, read-out: EC50 (nM) in M6PR binding assay

For `CC(=O)N[C@H]1[C@H](OCCCCC(=O)NCCCNC(=O)CCOCC(COCCC(=O)NCCCNC(=O)CCCCO[C@@H]2O[C@H](CO)[C@H](O)[C@H](O)[C@H]2NC(C)=O)(COCCC(=O)NCCCNC(=O)CCCCO[C@@H]2O[C@H](CO)[C@H](O)[C@H](O)[C@H]2NC(C)=O)NC(=O)CCCCCCCCCCCN2C(=O)C=CC2=O)O[C@H](CO)[C@H](O)[C@@H]1O` [817 (ASGPR compound I-123), N-[1,3-bis(2-{[3-(5-{[(2R,3R,4R,5R,6R)-3-acetamido-4,5-dihydroxy-6-(hydroxymethyl)oxanyl]oxy}pentanamido)propyl]carbamoyl}ethoxy)-2-[(2-{[3-(5-{[(2R,3R,4R,5R,6R)acetamido-4,5-dihydroxy-6-(hydroxymethyl)oxanyl]oxy}pentanamido)propyl]carbamoyl}ethoxy)methyl]propan-2-yl]-12-(2,5-dioxo-2,5-dihydro-1H-pyrrol-1-yl)dodecanamide], the “uptake into HepG2 cells (cell fluorescence versus conjugate concentration)” value (Hep G2 cells) was “comparable HepG2 cellular uptake”.

Molecule `O=C(CCCn1cc(CCCCNC(=S)Nc2ccc(O[C@H]3O[C@H](CCP(=O)(O)O)[C@@H](O)[C@H](O)[C@@H]3O)cc2)nn1)N[C@@H](CCCCn1cc(CCCCNC(=S)Nc2ccc(O[C@H]3O[C@H](CCP(=O)(O)O)[C@@H](O)[C@H](O)[C@@H]3O)cc2)nn1)C(=O)N[C@@H](CCCCn1cc(CCCCNC(=S)Nc2ccc(O[C@H]3O[C@H](CCP(=O)(O)O)[C@@H](O)[C@H](O)[C@@H]3O)cc2)nn1)C(=O)N[C@@H](CCCCn1cc(CCCCNC(=S)Nc2ccc(O[C@H]3O[C@H](CCP(=O)(O)O)[C@@H](O)[C@H](O)[C@@H]3O)cc2)nn1)C(=O)NCCOCCOCCOCCOCCC(=O)Oc1c(F)c(F)c(F)c(F)c1F` [728 (I-52)] has an EC50 ([1]; additional M6PR binding assays, average loading DAR 6, read-out: EC50 (nM) in M6PR binding assay) of 0.28 nM.

Work on `O=C(CCOCCOCCOCCN(CCOCCOCCOCCn1cc(CCCCNC(=S)Nc2ccc(O[C@H]3O[C@H](CCP(=O)(O)O)[C@@H](O)[C@H](O)[C@@H]3O)cc2)nn1)CCOCCOCCOCCn1cc(CCCCNC(=S)Nc2ccc(O[C@H]3O[C@H](CCP(=O)(O)O)[C@@H](O)[C@H](O)[C@@H]3O)cc2)nn1)NCCN1C(=O)C=CC1=O` [706 (I-41)] yielded an EC50 ([1]; additional M6PR binding assays, maleimide-Cys conjugation, read-out: EC50 (nM) in M6PR binding assay) of 0.271 nM.

`O=C(CCCCCc1cn(CCOCCOCCOCCOCCC(=O)Oc2c(F)c(F)c(F)c(F)c2F)nn1)Nc1ccc(O[C@H]2O[C@H](CCP(=O)(O)O)[C@@H](O)[C@H](O)[C@@H]2O)cc1` [513 (I-39)] was tested, and the EC50 [1, 2] was 0.186 nM.

For `O=C(CCOCCOCCOCCOCCn1cc(CCCCNC(=S)Nc2ccc(O[C@H]3O[C@H](CCP(=O)(O)O)[C@@H](O)[C@H](O)[C@@H]3O)cc2)nn1)Oc1c(F)c(F)c(F)c(F)c1F` [520 (I-7)], the “uptake into HepG2 cells (cell fluorescence versus conjugate concentration)” value (Hep G2 cells) was “comparable HepG2 cellular uptake”, the EC50 ([1]; additional M6PR binding assays, average loading DAR 4, read-out: EC50 (nM) in M6PR binding assay) was 0.412 nM and the EC50 ([1]; average loading DAR 2, FIG. 23, read-out: EC50 (nM) in M6PR binding assay) was 2.6 nM. The EC50 ([1]; average loading DAR 4, FIG. 23, read-out: EC50 (nM) in M6PR binding assay) was 0.221 nM and the EC50 [1, 2] was 0.217 nM.

Molecule `O=C(NCCCCc1cn(CCOCCOCCOCCOCCC(=O)Oc2c(F)c(F)c(F)c(F)c2F)nn1)Nc1ccc(O[C@H]2O[C@H](CCP(=O)(O)O)[C@@H](O)[C@H](O)[C@@H]2O)cc1` [529 (I-38)] has an EC50 [1, 3] of 0.194 nM.

Molecule `O=C(CCOCCn1cc(COCCOCCOCCNC(=S)Nc2ccc(O[C@H]3O[C@H](CCP(=O)(O)O)[C@@H](O)[C@H](O)[C@@H]3O)cc2)nn1)Oc1c(F)c(F)c(F)c(F)c1F` [522 (I-49)] has an EC50 ([1]; average loading DAR 11, FIG. 23, read-out: EC50 (nM) in M6PR binding assay) of 0.227 nM.

With `CC(=O)N[C@H]1[C@H](OCCCCC(=O)NCCCNC(=O)CCOCC(COCCC(=O)NCCCNC(=O)CCCCO[C@@H]2O[C@H](CO)[C@H](O)[C@H](O)[C@H]2NC(C)=O)(COCCC(=O)NCCCNC(=O)CCCCO[C@@H]2O[C@H](CO)[C@H](O)[C@H](O)[C@H]2NC(C)=O)NC(=O)CCCCCCCCCCC(=O)Oc2c(F)c(F)c(F)c(F)c2F)O[C@H](CO)[C@H](O)[C@@H]1O` [816 (ASGPR compound I-124)] the “uptake into HepG2 cells (cell fluorescence versus conjugate concentration)” value (Hep G2 cells) was “comparable HepG2 cellular uptake”.

For `O=C(CCOCCOCCOCCOCCOCCOCCOCCOCCn1cc(CCCCNC(=S)Nc2ccc(O[C@H]3O[C@H](CCP(=O)(O)O)[C@@H](O)[C@H](O)[C@@H]3O)cc2)nn1)Oc1c(F)c(F)c(F)c(F)c1F` [526 (I-48)], the EC50 ([1]; average loading DAR 10, FIG. 23, read-out: EC50 (nM) in M6PR binding assay) was 0.186 nM.

Work on `O=C(CCOCCn1cc(CCCCNC(=S)Nc2ccc(O[C@H]3O[C@H](CCP(=O)(O)O)[C@@H](O)[C@H](O)[C@@H]3O)cc2)nn1)Oc1c(F)c(F)c(F)c(F)c1F` [519 (I-47)] yielded an EC50 [1, 3] of 0.266 nM.

`O=C(CCOCCOCCOCCOCCn1cc(CCCCNC(=S)Nc2ccc(O[C@H]3O[C@H](CC(C(=O)O)C(=O)O)[C@@H](O)[C@H](O)[C@@H]3O)cc2)nn1)Oc1c(F)c(F)c(F)c(F)c1F` [537 (I-66)] was tested, and the EC50 ([1]; additional M6PR binding assays, average loading DAR 8, read-out: EC50 (nM) in M6PR binding assay) was 2.31 nM and the EC50 [1, 2] was 3.36 nM.

With `C[C@H](NC(=O)CCCn1cc(CCCCNC(=S)Nc2ccc(O[C@H]3O[C@H](CCP(=O)(O)O)[C@@H](O)[C@H](O)[C@@H]3O)cc2)nn1)C(=O)N[C@@H](C)C(=O)N[C@@H](C)C(=O)NCCOCCOCCOCCOCCC(=O)Oc1c(F)c(F)c(F)c(F)c1F` [528 (I-51)] the “uptake into Jurkat cells, average loading DAR9 versus lower average loading DAR2” value (Jurkat cells) was “greater uptake”, the EC50 ([1]; EC50 (nM) in M6PR binding assay, additional M6PR binding assays, average loading DAR 2) was 4.44 nM and the EC50 ([1]; EC50 (nM) in M6PR binding assay, additional M6PR binding assays, average loading DAR 8) was 0.301 nM. It also gave an EC50 ([1]; EC50 (nM) in M6PR binding assay, average loading DAR 9.5, FIG. 23) of 0.199 nM.

B1: Compound I-7 (d8): "matuzumab conjugates (matuzumab-Compound I-7(d4), matuzumab-Compound I-7(d8) ..." (conjugate)
heavy: QVQLVQSGAEVKKPGASVKVSCKASGYTFTSHWMHWVRQAPGQGLEWIGEFNPSNGRTNYNEKFKSKATMTVDTSTNTAYMELSSLRSEDTAVYYCASRDYDYAGRYFDYWGQGTLVTVSSASTKGPSVFPLAPSSKSTSGGTAALGCLVKDYFPEPVTVSWNSGALTSGVHTFPAVLQSSGLYSLSSVVTVPSSSLGTQTYICNVNHKPSNTKVDKKVEPKS
light: DIQMTQSPSSLSASVGDRVTITCSASSSVTYMYWYQQKPGKAPKLLIYDTSNLASGVPSRFSGSGSGTDYTFTISSLQPEDIATYYCQQWSSHIFTFGQGTKVEIKRTVAAPSVFIFPPSDEQLKSGTASVVCLLNNFYPREAKVQWKVDNALQSGNSQESVTEQDSKDSTYSLSSTLTLSKADYEKHKVYACEVTHQGLSSPVTKSFNRGE
modifications: left off: a dimerising Fc or GST
With B1 the “binding affinity for M6PR, rank among the conjugates tested” value [1] was “highest”.

B2: Compound I-11 (d4): "matuzumab conjugates (... matuzumab-Compound I-11(d4) ..." (conjugate)
heavy: QVQLVQSGAEVKKPGASVKVSCKASGYTFTSHWMHWVRQAPGQGLEWIGEFNPSNGRTNYNEKFKSKATMTVDTSTNTAYMELSSLRSEDTAVYYCASRDYDYAGRYFDYWGQGTLVTVSSASTKGPSVFPLAPSSKSTSGGTAALGCLVKDYFPEPVTVSWNSGALTSGVHTFPAVLQSSGLYSLSSVVTVPSSSLGTQTYICNVNHKPSNTKVDKKVEPKS
light: DIQMTQSPSSLSASVGDRVTITCSASSSVTYMYWYQQKPGKAPKLLIYDTSNLASGVPSRFSGSGSGTDYTFTISSLQPEDIATYYCQQWSSHIFTFGQGTKVEIKRTVAAPSVFIFPPSDEQLKSGTASVVCLLNNFYPREAKVQWKVDNALQSGNSQESVTEQDSKDSTYSLSSTLTLSKADYEKHKVYACEVTHQGLSSPVTKSFNRGE
modifications: left off: a dimerising Fc or GST
B2 was tested, and the “binding affinity for M6PR, rank among the conjugates tested” value [1] was “lowest”.
